The results in this text go back to US20030022889A1, “Method for providing neuro-protective effects” (priority 1997, published 2003).

In assay [1] the test system is muscarinic cholinergic receptor. Briefly: pharmacological studies, muscarinic cholinergic receptor activity.
Assay [2] has as its target T1, 5-HT1C receptor (Homo sapiens, UniProt P28335).
T1 sequence (P28335 33-458): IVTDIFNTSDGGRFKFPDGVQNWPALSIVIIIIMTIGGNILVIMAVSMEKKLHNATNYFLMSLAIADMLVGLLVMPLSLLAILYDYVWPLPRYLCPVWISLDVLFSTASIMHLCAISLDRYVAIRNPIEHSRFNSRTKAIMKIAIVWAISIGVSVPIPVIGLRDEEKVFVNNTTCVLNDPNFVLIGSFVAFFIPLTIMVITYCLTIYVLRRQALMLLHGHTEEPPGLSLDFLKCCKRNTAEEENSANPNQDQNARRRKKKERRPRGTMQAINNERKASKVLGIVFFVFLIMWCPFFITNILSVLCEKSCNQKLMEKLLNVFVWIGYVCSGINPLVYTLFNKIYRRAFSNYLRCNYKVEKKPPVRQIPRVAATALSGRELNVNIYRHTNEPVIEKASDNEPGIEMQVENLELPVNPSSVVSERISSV
As to the kind of experiment: pharmacological studies, 5-HT1C receptor activity.

The test system of assay [3] is ischemia-induced neuronal cell damage (CA1 pyramidal cell layer of the hippocampus). As to the kind of experiment: Cerebral Ischemia Model in Rats. Format: in vivo, Male Wistar rats. The note with it: "such experiments"; the sentence does not name a specific test. The source says:
Cerebral ischemia is produced in rats by occluding the four arteries that supply blood to the brain according to the following procedure. Male Wistar rats are anesthetized with Metofane and placed into a stereotaxic instrument. A longitudinal incision is made on the dorsal surface of the neck. The neck muscles are reflected to expose the dorsal surface of the spinal column. The two vertebral arteries are exposed where they pass through the first cervical vertebra. Both arteries are permanently occluded by the application of electrocautery. After coagulation of the vertebral arteries, the rat is removed from the stereotaxic instrument and the surgical wound is sutured. Two longitudinal incisions are then made on the ventral surface of the neck. The two common carotid arteries are exposed and dissected free from surrounding nerves and connective tissue. An atraumatic clasp, fabricated mainly from silicone rubber tubing, is placed around each carotid artery in a manner such that the vessel is not traumatized or occluded. An indwelling jugular cannula is implanted into each rat for drug delivery. The surgical wounds are then closed. […]
Damage in 4 sections of the dorsal hippocampus from each brain is assessed in order to obtain an accurate estimate of damage. An average damage score is calculated for each treatment group. […] The level of significance is determined using the Mann Whitney-U-test.

Assay [4] concerns formation of lipid peroxides. Briefly: Lipid Peroxidation Test. The note with it: test protocol of Aruoma, et al. (1990).

As for `Cc1cc2c(s1)Nc1ccccc1N=C2N1CCN(C)CC1` [olanzapine, 2-methyl-4-(4-methyl-1-piperazinyl)-10H-thieno[2,3-b] [1,5] benzodiazepine], the “muscarinic cholinergic receptor activity” value in assay [1] is on record as “has muscarinic cholinergic receptor activity”. In assay [2], the “activity at the 5-HT1C receptor” value is listed as “active”. In assay [3], the neuro-protective effect result is recorded as “significant neuro-protective effect”. For the same compound, the “inhibition of the formation of lipid peroxides” value in assay [4] is “inhibit the formation of lipid peroxides”.
